Experiments:
[1] = test system: Wild type MRC-5 human fetal lung fibroblasts; assay: Apoptosis assay (DAPI staining, caspase-3 and survivin immunoblot) in normal fibroblasts; type: cell-based
Description: FIG. 4. Anti-cancer properties of Siomycin A. (A) Representative photographs from soft agar experiment as described in Example 1 are shown. (B) Number of colonies in the soft agar were quantitated and plotted in the form of bar graphs. (C) Wild type and SV40-transformed MRC-5 human fetal lung fibroblasts were treated with indicated concentrations of Siomycin A for 48 hrs. Photographs from phase contrast microscopy (top panel) and fluorescent microscopy after DAPI staining (bottom panel) are shown. (D) Apoptotic nuclei from normal and SV40-transformed MRC-5 fibroblasts treated with indicated concentrations of Siomycin A for 24 hrs were scored after DAPI staining and percentage cell death (mean±sd; n=3) is shown. (E) Wild type and SV40-transformed MRC-5 fibroblasts were treated with Siomycin A as indicated for 48 hrs and the cell lysates were used for immunoblotting and probed for levels of survivin and cleaved caspase-3.
(§1) Immunoblotting was performed as described (18-20) with antibodies specific for p21 (556431; BD Pharmingen), survivin (sc-10811; Santa Cruz), cleaved caspase-3 (9664; Cell Signaling), and β-actin (A5441; Sigma) antibodies. Immunoblot for FoxM1 was done using the previously generated rabbit antisera (2), and phospho-FoxM1 was detected using the MPM2 monoclonal antibody (Upstate Biotechnology) which recognizes the phosphorylated protein sequence phosphoserine/phosphothreonine-proline.
Apoptosis was detected by DAPI (4′,6-diamidino-2-phenylindole) staining. All treatments were done in triplicates in 6-well plates and cells were stained with DAPI and visualized by fluorescent microscopy. Four random fields for each sample were photographed and at least 500 cells per field were counted to estimate apoptosis. The data is represented as mean±sd.

[2] = test system: Breast cancer cell lines BT-474, MDA-MB-231, T-47D and ZR-75-1; assay: FoxM1 and cleaved caspase-3 immunoblot in breast cancer cell lines; type: cell-based, human; conditions: 5 μM, 48 hrs
Description: FIG. 7. […] Breast cancer cell lines BT-474, MDA-MB-231, T-47D and ZR-75-1 were treated with 5 μM Siomycin and thiostrepton, respectively, for 48 hrs and the cell lysates were analyzed for the levels of FoxM1 and cleaved caspase-3 by immunoblotting.
as §1

[3] = molecular target: T1, FoxM1 (Homo sapiens, UniProt Q08050); assay: FoxM1-responsive firefly luciferase reporter assay in C3-Luc cells; type: cell-based; conditions: C3-Luc cells
T1 construct: expressed in transfected cells; host or cells: U2OS clone C3 / C3-Luc
T1 sequence (Q08050 1-748 isoform Q08050-2): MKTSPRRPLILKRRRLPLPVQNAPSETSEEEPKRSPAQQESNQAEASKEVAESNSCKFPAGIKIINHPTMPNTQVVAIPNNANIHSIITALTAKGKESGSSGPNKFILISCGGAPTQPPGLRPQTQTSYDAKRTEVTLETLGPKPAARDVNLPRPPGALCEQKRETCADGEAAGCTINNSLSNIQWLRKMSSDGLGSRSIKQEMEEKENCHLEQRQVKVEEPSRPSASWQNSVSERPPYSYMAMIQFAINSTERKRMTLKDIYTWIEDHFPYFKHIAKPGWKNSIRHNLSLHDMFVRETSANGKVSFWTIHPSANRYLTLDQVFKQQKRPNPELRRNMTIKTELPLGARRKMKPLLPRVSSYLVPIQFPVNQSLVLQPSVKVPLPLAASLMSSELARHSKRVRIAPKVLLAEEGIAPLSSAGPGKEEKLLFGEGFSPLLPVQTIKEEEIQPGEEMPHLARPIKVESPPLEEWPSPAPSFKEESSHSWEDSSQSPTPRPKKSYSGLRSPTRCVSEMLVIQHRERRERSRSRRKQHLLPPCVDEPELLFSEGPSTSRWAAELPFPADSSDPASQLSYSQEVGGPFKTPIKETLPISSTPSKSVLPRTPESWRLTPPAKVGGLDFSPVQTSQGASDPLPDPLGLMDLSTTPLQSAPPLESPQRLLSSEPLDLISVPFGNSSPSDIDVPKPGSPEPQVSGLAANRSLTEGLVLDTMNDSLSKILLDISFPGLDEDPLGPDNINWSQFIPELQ
Description: FIG. 6. Thiostrepton and Siomycin A both inhibit FoxM1 transcriptional activity. […] The next day, the luciferase activity was measured with the Dual-Luciferase reporter assay system (E1910; Promega) according to the manufacturer's instructions.
The development of U2OS clone C3 cell line with doxycyclin inducible FoxM1-GFP fusion protein has been described before (17). This cell line was transfected with a plasmid expressing firefly luciferase under the control of 6× FoxM1 responsive (FoxRE) promoter (17), along with pcDNA3.1 (Invitrogen, Carlsbad, Calif.) plasmid that expresses neomycin phospho-transferase. […] This clone was further transfected with pRL-CMV (Promega) that expresses renilla luciferase along with pLPCX-puro (Clontech), and the cells were selected in 2 μg/ml puromycin. This cell line which expresses FoxM1-dependent firefly luciferase and constitutive renilla luciferase was named as C3-Luc and used for the screening of compound libraries (Challenge set and Diversity set) from the National Cancer Institute.
For high-throughput screening, the C3-Luc cells were grown in 96-well plates and treated overnight with a combination of 1 μg/ml doxycycline and 10 μM of compounds from the library. Next day, the firefly and renilla luciferase activities were measured with the Dual Glo system (E2940; Promega).
For the other luciferase assay experiments, the cells were treated as indicated in the FIG. 1 legend and the luciferase activity was measured using the Dual Luciferase reporter assay system (E1910; Promega) according to the manufacturer's instructions.

[4] = normal cells, 48 hrs, immunoblot

## C=C(NC(=O)C(=C)NC(=O)c1csc(C2=N[C@@H]3c4csc(n4)[C@H]4NC(=O)c5csc(n5)[C@H]([C@](C)(O)[C@@H](C)O)NC(=O)[C@H]5CSC(=N5)/C(=C/C)NC(=O)[C@H]([C@@H](C)O)NC(=O)c5csc(n5)[C@]3(CC2)NC(=O)[C@H](C)NC(=O)C(=C)NC(=O)C(=C)NC(=O)[C@H](C(C)C)N[C@@H]2C=Cc3c([C@H](C)O)cc(nc3[C@H]2O)C(=O)O[C@@H]4C)n1)C(N)=O [Siomycin A]
[1]; [4]
  cleavage of caspase-3: but not normal cells showed cleavage of caspase-3
  survivin levels: effectively repress survivin levels
[1]; untransformed normal cells, forty-eight hours after treatment
  apoptosis / cell death: did not exhibit significant cell death
[2]
  FoxM1 expression: inhibit FoxM1 expression
  apoptosis (cleaved caspase-3): induce apoptosis
[3]; 1 μg/mL doxycycline (60-fold induction), 5 μM compound, 24 hrs
  relative firefly luciferase activity (FoxM1 transcriptional activity): efficiently reduced the value to basal levels
[3]; 1 μg/ml doxycycline induction (~16-fold), 10 μM compound, overnight
  relative firefly luciferase activity (exogenous FoxM1 transcriptional activity): efficiently reduced the value to basal levels

Source: patent publication US8029980B2, “Identification and use of agents that modulate oncogenic transcription agent activity” (The Board of Trustees of the University of Illinois, priority 2006, dated 2011)
